ChEMBL document CHEMBL4334518, “Discovery and Pharmacological Studies of 4-Hydroxyphenyl-Derived Phosphonium Salts Active in a Mouse Model of Visceral Leishmaniasis” (J Med Chem, 2019)
Calls of active or inactive are those of the source. No cut-off for these calls is given here.

Legend:
[1] = tested on: Leishmania infantum; assay: Antileishmanial activity against MIL/paromomycin resistant Leishmania infantum LEM 2126 isolate promastigote after 72 hrs by MTT assay; assay type: functional, organism-based
[2] = Metabolic stability in human liver S9 fraction at 5 to 10 uM measured for 120 mins in presence of NADPH by RP-HPLC analysis; assay type: ADME, subcellular; conditions: s9, 2 h
[3] = tested on: Leishmania donovani; assay: Potency index, ratio of amphotericin B EC50 to test compound EC50 for antileishmanial activity against Leishmania […] amastigote infected in THP1 cells; assay type: functional
[4] = Selectivity index, ratio of EC50 for cytotoxicity against human THP1 cells to EC50 for antileishmanial activity against Leishmania donovani MHOM/ET/67/HU3 amastigotes infected in human THP1 cells; assay type: toxicity, cell-based; conditions: read-out: Ratio EC50
[5] = Solubility of the compound in water; assay type: physicochemical; conditions: buffer
[6] = Tmax in BALB/c mouse at 20 mg/kg, po measured for up to 72 hrs by HPLC analysis; assay type: ADME, organism-based; conditions: in vivo
[7] = tested on: Leishmania infantum; assay: Antileishmanial activity against Leishmania infantum LEM 3049 isolate promastigotes infected in BALB/c mouse assessed as reduction in parasite burden in spleen at 1.5 mg/kg, po administered for 4 days and measured 2 days post last dose by light microscopic method relative to control; design: scale not given: the % may be the effect or the level left
[8] = Plasma concentration in BALB/c mouse infected with Leishmania infantum LEM 3049 isolate promastigote at 1.5 mg/kg, po for 4 days by HPLC analysis
[9] = tested on: Leishmania infantum; assay: Antileishmanial activity against MIL resistant Leishmania infantum LEM 5159 isolate promastigote after 72 hrs by MTT assay; assay type: functional, organism-based
[10] = tested on: THP-1; assay: Cytotoxicity against human THP1 cells assessed as reduction in cell viability after 72 hrs by MTT assay; assay type: cell-based; conditions: THP-1, 72 h
[11] = Half life in CD-1 mouse liver microsomes at 10 to 20 uM measured for 120 mins in presence of UDPGA by RP-HPLC analysis; assay type: ADME, Microsome
[12] = tested on: Leishmania infantum; assay: Antileishmanial activity against Leishmania infantum LEM 3049 isolate intracellular amastigotes infected in human THP1 cells after 96 hrs by prolong-gold antifade-reagent/DAPI staining based assay; assay type: functional, organism-based; conditions: THP-1, 96 h, read-out: EC50
[13] = tested on: Leishmania infantum; assay: Antileishmanial activity against MIL resistant Leishmania infantum LEM 5159 isolate intracellular amastigotes infected in human THP1 cells after 96 hrs by prolong-gold antifade-reagent/DAPI staining based assay; assay type: functional, organism-based; conditions: THP-1, 96 h
[14] = tested on: Leishmania infantum; assay: Antileishmanial activity against MIL/paromomycin resistant Leishmania infantum LEM 2126 isolate intracellular amastigotes infected in human THP1 cells after 96 hrs by prolong-gold antifade-reagent/DAPI staining based assay; assay type: functional, organism-based; conditions: THP-1, 96 h
[15] = Thermodynamic solubility of the compound in 5% gamma-cyclodextrin in water (w/w) colloidal suspension; assay type: physicochemical; conditions: read-out: Therm_solubility
[16] = Primary phase half life in BALB/c mouse at 20 mg/kg, po measured for < 6 hrs by HPLC analysis; assay type: ADME, organism-based; conditions: in vivo, read-out: alphat1/2 (converted)
[17] = tested on: Leishmania infantum; assay: Antileishmanial activity against Leishmania infantum LEM 3049 isolate promastigotes assessed as decrease in ATP level at 0.02 uM after 120 mins by CellTiter-Glo luminescence assay relative to control; assay type: functional; design: scale not given: the % may be the effect or the level left
[18] = Half life in human liver microsomes at 10 to 20 uM measured for 120 mins in presence of UDPGA by RP-HPLC analysis; assay type: ADME, Microsome
[19] = tested on: Leishmania infantum; assay: Induction of ROS generation in Leishmania infantum LEM 3049 isolate promastigotes at 1 uM after 2 hrs by H2DCFDA staining based flow cytometric analysis relative to control; assay type: functional
[20] = tested on: Leishmania infantum; assay: Induction of plasma membrane depolarization in Leishmania infantum LEM 3049 isolate promastigotes incubated for 2 hrs by DiBAC4(3) probe based flow cytometric analysis; assay type: functional, organism-based
[21] = tested on: Leishmania infantum; assay: Antileishmanial activity against Sb 3 resistant Leishmania infantum LEM 3329 isolate promastigote after 72 hrs by MTT assay; assay type: functional, organism-based
[22] = tested on: Leishmania infantum; assay: Induction of mitochondrial membrane potential loss in Leishmania infantum LEM 3049 isolate promastigotes at 0.02 uM after 30 mins by JC-1 dye based flow cytometric analysis relative to control; assay type: functional
[23] = tested on: Leishmania infantum; assay: Induction of apoptosis in Leishmania infantum LEM 3049 isolate promastigotes assessed as DNA fragmentation at 0.02 to 5 uM after 4 hrs by TUNEL assay; assay type: functional, organism-based
[24] = tested on: Leishmania infantum; assay: Antileishmanial activity against Leishmania infantum LEM 3049 isolate promastigotes assessed as decrease in ATP level at 0.1 uM after 120 mins by CellTiter-Glo luminescence assay relative to control; assay type: functional; design: scale not given: the % may be the effect or the level left
[25] = tested on: Leishmania donovani; assay: Antileishmanial activity against Leishmania donovani MHOM/ET/67/HU3 intracellular amastigotes infected in human THP1 cells after 96 hrs by prolong-gold antifade-reagent/DAPI staining based assay; assay type: functional, organism-based; conditions: MHOM/ET/67/HU3, THP-1, 96 h
[26] = Metabolic stability in human liver S9 fraction at 10 to 20 uM measured for 120 mins in presence of UDPGA by RP-HPLC analysis; assay type: ADME, subcellular; conditions: s9, 2 h
[27] = tested on: Leishmania infantum; assay: Antileishmanial activity against Leishmania infantum LEM 3049 isolate promastigotes assessed as decrease in ATP level at 1 uM after 120 mins by CellTiter-Glo luminescence assay relative to control; assay type: functional; design: scale not given: the % may be the effect or the level left
[28] = tested on: Leishmania infantum; assay: Antileishmanial activity against Leishmania infantum LEM 3049 isolate promastigotes assessed as decrease in ATP level at 0.02 to 1 uM after 30 mins by CellTiter-Glo luminescence assay relative to control; assay type: functional; design: scale not given: the % may be the effect or the level left
[29] = Acute toxicity in BALB/c mouse at 20 mg/kg, po; assay type: organism-based; conditions: in vivo
[30] = Drug concentration in BALB/c mouse spleen infected with Leishmania infantum LEM 3049 isolate promastigotes at 1.5 mg/kg, po administered for 4 days and measured 2 days post last dose by HPLC analysis; conditions: in vivo, 48 h, BLD = below limit of detection
[31] = tested on: Leishmania infantum; assay: Antileishmanial activity against Sb 3 resistant Leishmania infantum LEM 3329 isolate intracellular amastigotes infected in human THP1 cells after 96 hrs by prolong-gold antifade-reagent/DAPI staining based assay; assay type: functional, organism-based; conditions: THP-1, 96 h
[32] = Apparent terminal half life in BALB/c mouse at 20 mg/kg, po measured for 6 to 72 hrs by HPLC analysis; assay type: ADME, organism-based; conditions: in vivo, read-out: betat1/2(app) (converted)
[33] = Cmax in BALB/c mouse at 20 mg/kg, po measured for up to 72 hrs by HPLC analysis; assay type: ADME, organism-based; design: dose 20 mg/kg, route oral; conditions: in vivo
[34] = Plasma concentration in BALB/c mouse infected with Leishmania infantum LEM 3049 isolate promastigotes at 1.5 mg/kg, po administered for 4 days and measured 2 days post last dose by HPLC analysis; conditions: in vivo, 48 h, BLD = below limit of detection
[35] = Drug concentration in BALB/c mouse liver infected with Leishmania infantum LEM 3049 isolate promastigotes at 1.5 mg/kg, po administered for 4 days and measured 2 days post last dose by HPLC analysis; conditions: in vivo, 48 h, BLD = below limit of detection
[36] = tested on: Leishmania donovani; assay: Antileishmanial activity against Leishmania donovani MHOM/ET/67/HU3 promastigote after 72 hrs by MTT assay; assay type: functional, organism-based; conditions: MHOM/ET/67/HU3, 72 h
[37] = tested on: Leishmania infantum; assay: Antileishmanial activity against Leishmania infantum LEM 3049 isolate promastigotes infected in BALB/c mouse assessed as reduction in parasite burden in liver at 1.5 mg/kg, po administered for 4 days and measured 2 days post last dose by light microscopic method relative to control; design: scale not given: the % may be the effect or the level left
[38] = tested on: Leishmania infantum; assay: Antileishmanial activity against Leishmania infantum LEM 3049 isolate promastigote after 72 hrs by MTT assay; assay type: functional, organism-based
[39] = Half life in human liver microsomes at 5 to 10 uM measured for 120 mins in presence of NADPH by RP-HPLC analysis; assay type: ADME, Microsome
[40] = tested on: Leishmania infantum; assay: Induction of mitochondrial membrane potential loss in Leishmania infantum LEM 3049 isolate promastigotes at 1 uM after 24 hrs by JC-1 dye based flow cytometric analysis relative to control; assay type: functional
[41] = tested on: Leishmania infantum; assay: Induction of plasma membrane permeabilization in Leishmania infantum LEM 3049 isolate promastigotes 0.02 to 1 uM incubated for 2 hrs by SYTOX Green based flow cytometric analysis; assay type: functional, organism-based
[42] = Half life in CD-1 mouse liver microsomes at 5 to 10 uM measured for 120 mins in presence of NADPH by RP-HPLC analysis; assay type: ADME, Microsome
[43] = Drug uptake in ATP depleted Leishmania infantum LEM 3049 isolate promastigotes at 20 uM after 10 mins in presence of 2-deoxy-D-glucose by fluorimetric assay; assay type: ADME
[44] = Selectivity index, ratio of EC50 for cytotoxicity against human THP1 cells to EC50 for antileishmanial activity against Leishmania infantum amastigotes infected in human THP1 cells; assay type: toxicity, cell-based; conditions: read-out: Ratio EC50
[45] = tested on: Leishmania infantum; assay: Antileishmanial activity against Leishmania infantum amastigotes infected in human THP1 cells after 96 hrs by prolong-gold antifade-reagent/DAPI staining based assay; assay type: functional, organism-based; conditions: THP-1, 96 h
[46] = tested on: Leishmania infantum; assay: Antileishmanial activity against Leishmania infantum promastigote after 72 hrs by MTT assay; assay type: functional, organism-based
[47] = Drug uptake in Leishmania infantum LEM 3049 isolate promastigotes at 20 uM after 10 mins at 28 degC by fluorimetric assay; assay type: ADME
[48] = Drug uptake in Leishmania infantum LEM 3049 isolate promastigotes at 20 uM after 10 mins at 4 degC by fluorimetric assay; assay type: ADME

Compound: O=C(CCCCCCCCCCCCCCC[P+](c1ccccc1)(c1ccccc1)c1ccccc1)c1ccc(O)cc1O.[Br-]
- EC50 [1]: 120 nM
- Stability [2]: Stable
- Ratio EC50 [3]: 2
- selectivity ratio [4]: 31.2
- solubility [5]: Insoluble
- Tmax [6]: 1 h
- Activity [7]: 98.9%
- concentration at 96 h [8]: > 0.09 µM
- EC50 [9]: 110 nM
- EC50 [10]: 2810 nM
- half-life at up to 20 µM [11]: < 0.5 h
- EC50 [12]: 120 nM
- EC50 [13]: 140 nM
- EC50 [14]: 140 nM
- solubility thermodynamic [15]: 520 µg/mL
- half-life [16]: 1 h
- Activity [17]: 91%
- half-life at up to 20 µM [18]: > 2 h
- fold change (FC) [19]: 8
- Activity [20]: Dose-dependent effect
- EC50 [21]: 100 nM
- Activity [22]: 86%
- Activity [23]: inactive
- Activity [24]: 89%
- EC50 [25]: 90 nM
- Stability [26]: Stable
- Activity [27]: 87%
- Activity [28]: 50 - 74%
- Activity [29]: Toxic
- Drug uptake [30]: Bld
- EC50 [31]: 150 nM
- half-life [32]: 23 h
- Cmax [33]: 182 µM
- Cp [34]: Bld
- Drug uptake [35]: Bld
- EC50 [36]: 70 nM
- Activity [37]: 95.3%
- EC50 [38]: 80 nM
- half-life [39]: > 2 h
- Activity [40]: 97%
- Activity [41]: inactive
- half-life [42]: < 0.5 h

Compound: O=C(CCCCCCCCCCCCCCC[P+](c1cccc2ccccc12)(c1cccc2ccccc12)c1cccc2ccccc12)c1ccc(O)cc1O.[Br-]
- EC50 [10]: 12800 nM
- Drug uptake [43]: Active
- selectivity ratio [44]: 10.3
- EC50 [45]: 1250 nM
- EC50 [46]: 3540 nM
- Drug uptake [47]: Active
- Drug uptake [48]: Active
